Data taken from US11045416B2, “Topical compositions comprising Pichia anomala and retinol” (Johnson & Johnson Consumer Inc., priority 2018, dated 2021).

System: Heparin Binding Epidermal Growth Factor (HBEGF)
Assay: HBEGF gene expression in human skin explants by qPCR (Example 3)
Assay type: cell-based
Conditions: 4 μL topically, 48 hours; observed minus untreated (100)
Protocol: First, abdominal skin samples were obtained from human adults undergoing abdominoplasty surgery. Informed consent was obtained from each patient, and all experimental steps were approved by an institutional review board (IRB). Subcutaneous fat was carefully removed and skin biopsies of 0.93 cm^2 were prepared under sterile conditions and acclimated in keratinocyte growth media sold under the tradename KGM-GOLD BULLETKIT (Lonza, Walkersville, Md.), with 10% antibiotics under a 5% CO2 humidified atmosphere overnight.
The skin explants were treated topically with 4 μL of the various formulations and left to incubate for 48 hours. An untreated explant sample was used as the control. In the case of combined application of Composition 5 and the 5% solution of Pichia anomala extract, 4 μL of each were applied. At the end of the 48 h, epidermis and dermis were separated by heating. […]
Gene expression assays were performed by real time quantitative polymerase chain reaction (PCR) based on the SyBR green method. qPCR was run on a real time PCR system sold under the tradename CFX96 TOUCH (Bio-Rad Laboratories, Inc., Hercules, Calif.). […] The fold changes were calculated in comparison to the untreated controls and ANOVA statistical test was performed.

HBEGF expression, Observed Normalized to untreated: 291
Structure (SMILES): CC1=C(/C=C/C(C)=C/C=C/C(C)=C/CO)C(C)(C)CCC1 [retinol, Retinol]
